# Experimental data: US9238797B2, “Method for production of pluripotent stem cell” (TAKARA BIO INC., priority 2008, dated 2016)
# Assays:
# Type in all cases: cell-based
# [1] = system: human adult skin fibroblast; experiment: iPS cell colony induction using a lentivirus vector, Retronectin or polybrene (Example 31); conditions: 32nd day of culture
# Method: According to the same manner as that of Example 1-(1), immobilization of Retronectin on a culture plate was carried out, provided that, as a plate to be coated with Retronectin, a non-treatment 12-well plate was used, and each 1 mL of a Retronectin solution (25 μg/mL) was added to each well.
# Each 500 μL of each mixed virus solution prepared in Preparation Example 5 was added to a 12-well Retronectin immobilization culture plate, or a 12-well culture plate, and each 500 μL of human adult skin fibroblast suspended in 10F-DMEM to 1×10^5 cells/mL was further added to each well. Regarding polybrene infection condition, polybrene was added to a final concentration of 8 μg/mL. […] (day 0 of culturing).
# On the sixth day of culture, according to the same manner as that of Example 5-(4), the gene-introduced cell was seeded on a feeder cell, and culturing was continued. […] During this, the medium was exchanged at 2 days interval.
# In addition, regarding the condition A, the results of only one well are shown.
# [2] = system: mouse embryonic fibroblast; MEF; experiment: Efficiency of introducing a retrovirus vector into MEF, AcGFP1 positive cell rate (Example 23); conditions: four days after gene transfer
# Method: An efficiency of introducing a gene into MEF using a retrovirus vector was compared between a Retronectin method and a polybrene method.
# According to the same manner as that of Example 1-(1), immobilization of Retronectin on a culture plate was carried out, provided that, as a plate on which Retronectin is coated, a non-treatment 12-well plate (manufactured by Becton, Dickinson and Company) was used, and each 1 mL of a Retronectin solution (25 μg/mL) was added to each well.
# According to the same manner as that of Example 19-(2) and (3), gene transfer was carried out. The retrovirus vector was prepared according to the same manner as that of Preparation Example 3, and DON-eco-AcGFP1 made using pE-Eco plasmid (manufactured by TAKARA BIO INC.) in place of pE-Ampho plasmid was used. Each of the prepared retrovirus vector as a stock solution, and solutions obtained by diluting the stock solution by each 10-fold to 100000-fold with 10F-DMEM was used for infection. In addition, as a target cell, MEF (manufactured by Millipore) was used.
# On the next day of gene transfer, the medium was exchanged with 10F-DMEM.
# Four days after a gene transfer operation, the cells were recovered, and an AcGFP1 positive cell rate was measured with a flow cytometer.
# human skin fibroblast [3] = experiment: Gene transfer efficiency with two retrovirus vectors, AcGFP1/mStrawberry double positive cells by flow cytometer (Example 8); conditions: 3 days after gene transfer
# Method: According to the same manner as that of Example 1-(1), immobilization of Retronectin on a culture plate was carried out, provided that a non-treatment 24-well culture plate (manufactured by Becton, Dickinson and Company) was used, and a Retronectin solution was added to each well by each 500 μL.
# Gene transfer with Retronectin was carried out according to the same manner as that of Example 3-(2), provided that a retrovirus vector was a combination of DON-am-AcGFP1 and DONAI2-am-mStrawberry, and gene transfer was carried out by mixing each 250 μL of virus solutions. Further, a group of mixing 250 μL of a virus solution diluted 50-fold with 10F-DMEM was also set. In addition, a cell was suspended in a medium to 4×10^4 cells/mL, and each 500 μL was added to each well.
# Gene transfer with polybrene was carried out in the same combination as that of retrovirus vectors according to the same manner as that of gene transfer with polybrene of Example 7-(2), provided that the cell was suspended in a medium to 4×10^4 cells/mL, and each 500 μL was added to each well of a 24-well culture plate (manufactured by Corning). […]
# After 3 days from gene transfer operation, the cells were recovered, and AcGFP1 positive and mStrawberry positive cells were measured with a flow cytometer (CytomicsFC500, manufactured by Beckmann Coulter Inc.).
# human skin fibroblast [4] = experiment: iPS cell colony induction with three genes OCT4, SOX2 and KLF4, Retronectin or polybrene (Example 11); conditions: OCT4, SOX2 and KLF4 only, 28th day of culture, N=2
# Method: By limiting a gene to be introduced to three kinds of OCT4, SOX2 and KLF4, the same experiment as that of Example 10 was carried out.
# According to the same manner as that of Example 10-(2), gene transfer was carried out, provided that, as the retrovirus vector, retrovirus vectors DON5-am-OCT4-IR-SOX2 and DON5-am-KLF4 prepared in Preparation Example 2 were used.
# According to the same manner as that of Example 10-(4), the gene-introduced cell was seeded on a feeder cell, and culturing was continued.
# Culturing was carried out according to the same manner as that of Example 10-(5).
# (§1) In addition, the number in the Table indicates an average value of N=2.
# [5] = system: human adult skin fibroblasts; experiment: iPS cell colony induction, differences between donors, Retronectin or polybrene (Example 13); conditions: virus 10-fold dilution, 25th day of culture, N=2
# Method: Regarding gene transfer with a retrovirus vector, a pluripotent stem cell was induced using Retronectin or polybrene, targeting four kinds of human adult skin fibroblasts as in Example 12, followed by comparison.
# According to the same manner as that of Example 1-(1), immobilization of Retronectin on a culture plate was carried out, provided that a non-treatment 12-well culture plate (manufactured by Becton, Dickinson and Company) was used, and each 1 mL of a Retronectin solution was added to each well.
# According to the same manner as that of Example 7-(2), gene transfer was carried out (day 0 of culturing), provided that a 12-well plate for culturing a cell (manufactured by Corning) was used in gene transfer with polybrene. A virus solution was added to each well by each 1 mL by diluting 10-fold a solution obtained by mixing equal amounts of three kinds of vectors, with 10F-DMEM.
# On the sixth day of culture, according to the same manner as that of Example 5-(4), the gene-introduced cell was seeded on a feeder cell, and culturing was continued.
# According to the same manner as that of Example 10-(5), culturing on the feeder cell was carried out until the 25th day of culture.
# as §1
substance,measurement,setting,value
"Retronectin: fragment of fibronectin having a heparin-II binding region (registered trademark, CH-296, TAKARA BIO INC.)","number of a pluripotent stem cell (iPS cell) colony, Well 1",[1]; 20-fold concentrated virus,3
same,"number of a pluripotent stem cell (iPS cell) colony, Well 2",[1]; 20-fold concentrated virus,2
same,"number of a pluripotent stem cell (iPS cell) colony, Well 1",[1]; virus without concentration,5
same,Positive cell rate,[2]; Virus concentration 0.00001,5.9%
same,Positive cell rate,[2]; Virus concentration 0.0001,15.3%
same,Positive cell rate,[2]; Virus concentration 0.001,41.3%
same,Positive cell rate,[2]; Virus concentration 0.01,64.6%
same,Positive cell rate,[2]; Virus concentration 0.1,80.3%
same,Positive cell rate,[2]; Virus concentration 1.0,84.1%
same,Ratio of double positive cells,human skin fibroblast [3]; virus 50-fold dilution,66.5%
same,Ratio of double positive cells,human skin fibroblast [3]; virus solution undiluted,40.7%
same,Number of iPS cell colonies,human skin fibroblast [4]; virus 10-fold dilution,28.0
same,Number of iPS cell colonies,human skin fibroblast [4]; virus 100-fold dilution,32.0
same,Number of iPS cell colonies,human skin fibroblast [4]; virus solution undiluted,13.0
same,Number of iPS cell colonies,[5]; Cell A,81.0
same,Number of iPS cell colonies,[5]; Cell B,6.5
same,Number of iPS cell colonies,[5]; Cell C,114.0
same,Number of iPS cell colonies,[5]; Cell D,44.5
